Source: patent US20140228445A1, “ALKYNE DERIVATIVES AS SPHINGOSINE 1-PHOSPHATE (S1P) RECEPTOR MODULATORS” (Allergan, Inc., priority 2013, published 2014)

Target: T1, human S1P1 receptor (Homo sapiens, UniProt P21453)
T1 construct: expressed in transfected cells; membranes used
Experiment: GTP γ35S binding assay for S1P1 activity
Format: biochemical
Conditions: membranes of cells stably expressing the S1P1 receptor, test range 0.08 to 5,000 nM
Description: Compounds were synthesized and tested for S1P1 activity using the GTP γ^35S binding assay. These compounds may be assessed for their ability to activate or block activation of the human S1P1 receptor in cells stably expressing the S1P1 receptor.
GTP γ^35S binding was measured in the medium containing (mM) HEPES 25, pH 7.4, MgCl2 10, NaCl 100, dithitothreitol 0.5, digitonin 0.003%, 0.2 nM GTP γ^35S, and 5 μg membrane protein in a volume of 150 μl. Test compounds were included in the concentration range from 0.08 to 5,000 nM unless indicated otherwise. Membranes were incubated with 100 μM 5′-adenylylimmidodiphosphate for 30 min, and subsequently with 10 μM GDP for 10 min on ice. Drug solutions and membrane were mixed, and then reactions were initiated by adding GTP γ^35S and continued for 30 min at 25° C. Reaction mixtures were filtered over Whatman GF/B filters under vacuum, and washed three times with 3 mL of ice-cold buffer (HEPES 25, pH7.4, MgCl2 10 and NaCl 100). Filters were dried and mixed with scintillant, and counted for ^35S activity using a β-counter. Agonist-induced GTP γ^35S binding was obtained by subtracting that in the absence of agonist. Binding data were analyzed using a non-linear regression method. In case of antagonist assay, the reaction mixture contained 10 nM S1P in the presence of test antagonist at concentrations ranging from 0.08 to 5000 nM.

T1 sequence (P21453 whole entry): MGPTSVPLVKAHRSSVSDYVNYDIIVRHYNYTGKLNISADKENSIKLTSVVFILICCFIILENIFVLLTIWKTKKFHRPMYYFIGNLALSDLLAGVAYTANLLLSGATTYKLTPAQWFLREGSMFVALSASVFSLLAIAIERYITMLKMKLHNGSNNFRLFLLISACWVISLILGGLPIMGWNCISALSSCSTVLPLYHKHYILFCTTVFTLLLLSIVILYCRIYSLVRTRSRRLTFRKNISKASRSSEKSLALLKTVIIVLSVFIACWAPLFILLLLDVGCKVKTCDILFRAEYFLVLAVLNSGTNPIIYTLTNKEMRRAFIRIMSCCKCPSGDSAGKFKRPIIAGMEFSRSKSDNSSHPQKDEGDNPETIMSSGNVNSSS

Point of comparison: `Cc1ccc(CC(C#Cc2ccc(CCC(N)(CO)CO)cc2)c2cccc(F)c2)cc1C` (stereo not drawn) [Compound 2, 2-Amino-2-(2-{4-[4-(3,4-dimethylphenyl)-3-(3-fluorophenyl)but-1-yn-1-yl]phenyl}ethyl)propane-1,3-diol], EC50 3.27 nM. Against it:
- Cc1ccc(CC(C#Cc2ccc(CCC(N)(CO)CO)cc2)c2cc(F)cc(F)c2)cc1C (stereo not drawn) [Compound 1, 2-Amino-2-(2-{4-[3-(3,5-difluorophenyl)-4-(3,4-dimethylphenyl)but-1-yn-1-yl]phenyl}ethyl)propane-1,3-diol] — 11-fold higher, 35.5 nM
- Cc1cccc(C(C#Cc2ccc(CCC(N)(CO)CO)cc2)Cc2ccc(C)c(C)c2)c1 (stereo not drawn) [Compound 3, 2-Amino-2-(2-{4-[4-(3,4-dimethylphenyl)-3-(3-methylphenyl)but-1-yn-1-yl]phenyl}ethyl)propane-1,3-diol] — 130-fold higher, 416 nM
